Measurements taken from article PMC9958262, “Endocannabinoids enhance hKV7.1/KCNE1 channel function and shorten the cardiac action potential and QT interval” (eBioMedicine, 2023).
Values belong to the molecule of their own block, whether it stands above or below them.

Legend:
Format in all cases: cell-based
hKV7.1/KCNE1 (KV7.1) [1] = target: T1, hKV7.1/KCNE1 (KV7.1) (Homo sapiens, UniProt P51787); assay: two-electrode voltage clamp in Xenopus oocytes, V50 shift at […]
T1 construct: gene KCNQ1; with KCNE1

hKV7.1/KCNE1 (KV7.1) [2] = target: T1, hKV7.1/KCNE1 (KV7.1); assay: two-electrode voltage clamp in Xenopus oocytes, V50 shift; mutagenesis (R228Q abolishes V50 shift); also active on KV7.[…] alone (EC50 […])
hKV7.1/KCNE1 (KV7.1) [3] = target: T1, hKV7.1/KCNE1 (KV7.1); assay: two-electrode voltage clamp in Xenopus oocytes, V50 shift
hKV7.1/KCNE1 (KV7.1) [4] = target: T1, hKV7.1/KCNE1 (KV7.1); assay: two-electrode voltage clamp in Xenopus oocytes, V50 shift (current amplitude EC50 […]); site mutagenesis supported by MD
hKV7.1/KCNE1 (KV7.1) [5] = target: T1, hKV7.1/KCNE1 (KV7.1); assay: two-electrode voltage clamp in Xenopus oocytes, V50 shift at […] (moderate effect)

T1 sequence (P51787 whole entry): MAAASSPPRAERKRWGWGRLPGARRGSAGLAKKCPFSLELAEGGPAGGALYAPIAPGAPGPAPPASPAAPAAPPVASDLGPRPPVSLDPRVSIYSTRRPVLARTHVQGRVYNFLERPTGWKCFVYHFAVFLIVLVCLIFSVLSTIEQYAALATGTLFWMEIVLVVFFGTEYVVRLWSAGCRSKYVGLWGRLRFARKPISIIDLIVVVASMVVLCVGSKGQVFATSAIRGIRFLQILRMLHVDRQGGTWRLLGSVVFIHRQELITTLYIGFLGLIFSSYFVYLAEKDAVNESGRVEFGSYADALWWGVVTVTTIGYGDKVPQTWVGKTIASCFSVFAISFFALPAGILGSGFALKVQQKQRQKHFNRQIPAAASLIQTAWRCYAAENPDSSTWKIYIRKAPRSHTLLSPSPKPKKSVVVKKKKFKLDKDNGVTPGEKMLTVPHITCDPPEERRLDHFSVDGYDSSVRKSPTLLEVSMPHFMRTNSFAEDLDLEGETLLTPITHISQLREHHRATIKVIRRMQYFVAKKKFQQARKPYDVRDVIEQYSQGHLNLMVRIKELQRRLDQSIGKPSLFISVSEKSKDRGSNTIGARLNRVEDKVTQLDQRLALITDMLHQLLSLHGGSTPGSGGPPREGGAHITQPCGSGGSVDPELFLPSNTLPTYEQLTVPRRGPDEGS

SMILES: CCCCC/C=C\C/C=C\C/C=C\C/C=C\CCCC(=O)N[C@H](CO)C(=O)O [ARA-D-S]
ΔV50 (mV) (hKV7.1/KCNE1 (KV7.1) [1]): −29.0 mV

SMILES: CCCCC/C=C\C/C=C\C/C=C\C/C=C\CCCC(=O)N[C@@H](CO)C(=O)O [ARA-S]
EC50 (hKV7.1/KCNE1 (KV7.1) [2]): 9 µM

EC50 (hKV7.1/KCNE1 (KV7.1) [3]): 5 µM
SMILES: CC/C=C\C/C=C\C/C=C\C/C=C\C/C=C\C/C=C\CCC(=O)NC(CO)C(=O)O (stereo not shown) [DOC-S]

SMILES: CCCCC/C=C\C/C=C\CCCCCCCC(=O)NC(CO)C(=O)O (stereo not shown) [LIN-S]
EC50 (hKV7.1/KCNE1 (KV7.1) [4]): 12 µM

SMILES: CCCCC/C=C\C/C=C\C/C=C\C/C=C\CCCC(=O)NCCCC(=O)O [NAGABA]
ΔV50 (mV) (hKV7.1/KCNE1 (KV7.1) [5]): −6.7 mV

SMILES: CCCCC/C=C\C/C=C\C/C=C\C/C=C\CCCC(=O)NCC(=O)O [NAGly]
ΔV50 (mV) (hKV7.1/KCNE1 (KV7.1) [1]): −25.5 mV

SMILES: CCCCC/C=C\C/C=C\C/C=C\C/C=C\CCCC(=O)N[C@@H](C)C(=O)O [NALA]
ΔV50 (mV) (hKV7.1/KCNE1 (KV7.1) [1]): −22.2 mV
